Measured values published in ChEMBL document CHEMBL3351819, “Clofazimine analogs with antileishmanial and antiplasmodial activity” (Bioorg Med Chem, 2015).

Assays:
Leishmania infantum = test: Antileishmanial activity against Leishmania infantum MHOM/TN/80/IPT1 promastigotes assessed as inhibition of parasite growth after 72 hrs by MTT assay; assay type: functional, organism-based; details: MHOM/TN/80/IPT1, 72 h
[1] = Selectivity index, ratio of IC50 for HMEC1 to IC50 for Leishmania infantum MHOM/TN/80/IPT1
Leishmania tropica = test: Antileishmanial activity against Leishmania tropica MHOM/IT/2012/ISS3130 promastigotes assessed as inhibition of parasite growth after 72 hrs by MTT assay; assay type: functional, organism-based; details: MHOM/IT/2012/ISS3130, 72 h
[2] = Selectivity index, ratio of IC50 for HMEC1 to IC50 for Leishmania tropica MHOM/IT/2012/ISS3130
Plasmodium falciparum [3] = test: Antiplasmodial activity against chloroquine-sensitive Plasmodium falciparum D10 assessed as inhibition of parasite growth after 72 hrs by parasite lactate dehydrogenase assay; assay type: functional, organism-based; details: D10, 72 h
[4] = Selectivity index, ratio of IC50 for HMEC1 to IC50 for chloroquine-sensitive Plasmodium falciparum D10
Plasmodium falciparum [5] = test: Antiplasmodial activity against chloroquine-resistant Plasmodium falciparum W2 assessed as inhibition of parasite growth after 72 hrs by parasite lactate dehydrogenase assay; assay type: functional, organism-based; details: W2, 72 h
Plasmodium falciparum [6] = test: Resistance index, ratio of IC50 for chloroquine-resistant Plasmodium falciparum W2 to IC50 for chloroquine-sensitive Plasmodium falciparum D10; assay type: functional
[7] = Selectivity index, ratio of IC50 for HMEC1 to IC50 for chloroquine-resistant Plasmodium falciparum W2
[8] = Cytotoxicity against HMEC1 cells after 72 hrs by MTT assay; assay type: cell-based; details: Homo sapiens, HMEC-1, 72 h
Leishmania braziliensis = test: Antileishmanial activity against Leishmania braziliensis MHOM/IT/2006/ISS2848 promastigotes assessed as inhibition of parasite growth after 72 hrs by MTT assay; assay type: functional, organism-based; details: MHOM/IT/2006/ISS2848, 72 h
[9] = Selectivity index, ratio of IC50 for HMEC1 to IC50 for Leishmania braziliensis MHOM/IT/2006/ISS2848

Row | Structure (SMILES) | IC50 (Leishmania infantum) [nM] | Ratio IC50 [1] | IC50 (Leishmania tropica) [nM] | Ratio IC50 [2] | IC50 (Plasmodium falciparum [3]) [nM] | Ratio IC50 [4] | IC50 (Plasmodium falciparum [5]) [nM] | Ratio IC50 (Plasmodium falciparum [6]) | Ratio IC50 [7] | IC50 [8] [nM] | IC50 (Leishmania braziliensis) [nM] | Ratio IC50 [9]
1 | Cl.Fc1ccc(Nc2cc3nc4ccccc4n(-c4ccc(F)c(Cl)c4)c-3c/c2=N/CCCCCCC23CCCCN2CCCC3)cc1Cl | 350 | 3.9 | 240 | 5.5 | 310 | 4.4 | 570 | 1.9 | 2.4 | 1350 |  | 
2 | c1ccc(Nc2cc3nc4ccccc4n(-c4ccccc4)c-3c/c2=N/C[C@@H]2CCCN3CCCC[C@H]23)cc1 |  |  |  |  | 370 |  | 810 | 2.2 |  |  |  | 
3 | COc1ccc(Nc2cc3nc4ccccc4n(-c4ccccc4)c-3c/c2=N/CCCCC23CCCCN2CCCC3)cn1.Cl | 4440 | 1.4 | 2320 | 2.7 | 810 | 7.8 | 350 | 0.4 | 18.1 | 6320 |  | 
4 | Cl.c1ccc(Nc2cc3nc4ccccc4n(-c4ccccc4)c-3c/c2=N/CC23CCCN2CCC3)cc1 |  |  | 9850 | 0.3 | 640 | 4.1 | 440 | 0.7 | 6 | 2650 |  | 
5 | Cl.c1ccc(Nc2cc3nc4ccccc4n(-c4ccccc4)c-3c/c2=N/CCN2CCCC2)cc1 |  |  | 12300 | 0.1 | 180 | 7.7 | 110 | 0.6 | 12.6 | 1390 |  | 
6 | Cl.c1ccc(Nc2cc3nc4ccccc4n(-c4ccccc4)c-3c/c2=N/CCCCCCC23CCCCN2CCCC3)cc1 | 230 | 5.4 | 120 | 10.3 | 170 | 7.3 | 210 | 1.2 | 5.9 | 1240 | 140 | 8.9
7 | Cl.Fc1ccc(Nc2cc3nc4ccccc4n(-c4ccc(F)cc4)c-3c/c2=N/CCCCC23CCCCN2CCCC3)cc1 | 480 | 4.1 | 840 | 2.3 | 240 | 8.2 | 390 | 1.6 | 5 | 1960 |  | 
8 | Cl.Clc1ccc(Nc2cc3nc4ccccc4n(-c4ccc(Cl)cc4)c-3c/c2=N/CC23CCCN2CCC3)cc1 |  |  | 7440 | 0.5 | 620 | 5.8 | 750 | 1.2 | 4.8 | 3570 |  | 
9 | Cl.c1ccc(-n2c3c/c(=N/CCCCC45CCCCN4CCCC5)c(Nc4cccnc4)cc-3nc3ccccc32)cc1 | 6020 | 0.6 | 2010 | 1.9 | 280 | 13.9 | 210 | 0.8 | 18.5 | 3890 |  | 
10 | Cl.c1ccc(Nc2cc3nc4ccccc4n(-c4ccccc4)c-3c/c2=N/CCCCC23CCCCN2CCCC3)cc1 | 370 | 3.3 | 220 | 5.6 | 210 | 5.9 | 270 | 1.3 | 4.5 | 1230 | 170 | 7.2
11 | c1ccc(Nc2cc3nc4ccccc4n(-c4ccccc4)c-3c/c2=N/C[C@H]2CCCN3CCCC[C@H]23)cc1 |  |  |  |  | 140 |  | 240 | 1.7 |  |  |  | 
12 | CCN(CC)CCCC(C)Nc1ccnc2cc(Cl)ccc12 (stereo not given) [CHLOROQUINE] |  |  |  |  |  |  |  |  |  | > 38000 |  | 
